One block for each molecule: values may come before it. Activity calls are given as the source filed them. Rule as the data show it, for most assays here: actives have a measured IC50 and inactives only a lower limit.
Legend:
[1] = molecular target: Melanin-concentrating hormone receptor 1 (Homo sapiens, UniProt Q99705); assay: Late-stage fluorescence-based counterscreen for antagonists of the G-protein coupled receptor 7 (GPR7): cell-based dose response assay to identify antagonists of the melanin-concentrating hormone receptor 1 (MCHR1) Set 6.; assay type: functional
[2] = cytotoxicity toward NIH3T3 fibroblasts, dose response, counter-screen, cell-based, ATP luminescence, mouse fibroblasts (AID 2010); assay type: functional;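 also: cells exposed to compound for about 90 hours before reading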
[3] = molecular target: T1, High affinity choline transporter 1 (Homo sapiens, UniProt Q9GZV3); assay: CHT activators, dose response, cell-based, 10-point CRC, membrane potential dye (AID 602376); assay type: functional
T1 sequence (Q9GZV3 whole entry): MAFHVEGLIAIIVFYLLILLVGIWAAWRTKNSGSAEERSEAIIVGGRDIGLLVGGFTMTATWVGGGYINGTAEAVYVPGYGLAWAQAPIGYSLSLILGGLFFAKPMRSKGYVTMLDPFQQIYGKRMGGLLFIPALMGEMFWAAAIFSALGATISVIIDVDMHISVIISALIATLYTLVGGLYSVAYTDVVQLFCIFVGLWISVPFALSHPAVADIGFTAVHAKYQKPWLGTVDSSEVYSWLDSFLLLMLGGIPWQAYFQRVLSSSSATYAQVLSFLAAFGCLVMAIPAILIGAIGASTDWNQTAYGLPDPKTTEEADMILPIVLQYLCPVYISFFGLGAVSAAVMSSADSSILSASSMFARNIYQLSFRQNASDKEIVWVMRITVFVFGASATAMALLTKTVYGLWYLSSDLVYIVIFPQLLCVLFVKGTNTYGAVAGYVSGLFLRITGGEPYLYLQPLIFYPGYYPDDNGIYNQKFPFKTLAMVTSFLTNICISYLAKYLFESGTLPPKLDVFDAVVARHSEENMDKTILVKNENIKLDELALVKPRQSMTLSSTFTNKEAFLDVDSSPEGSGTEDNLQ

[4] = cells
[5] = inhibitors of intracellular T. cruzi replication, confirmation, NIH3T3 host cells, beta-gal luminescence (AID 2044); assay type: functional, cell-based;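 also: intracellular parasites grown in NIH/3T3 mouse fibroblasts as host cells; luminescent beta-galactosidase reporter signal from transgenic T. cruzi replicating inside host cells; inhibitors lower the luminescence signal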
[6] = molecular target: T2, Sentrin-specific protease 7 (Homo sapiens, UniProt Q9BQF6); assay: SENP7 protease inhibitors, SAR follow-up, biochemical, luminescence, set 2 (AID 588600); assay type: functional
T2 sequence (Q9BQF6 whole entry): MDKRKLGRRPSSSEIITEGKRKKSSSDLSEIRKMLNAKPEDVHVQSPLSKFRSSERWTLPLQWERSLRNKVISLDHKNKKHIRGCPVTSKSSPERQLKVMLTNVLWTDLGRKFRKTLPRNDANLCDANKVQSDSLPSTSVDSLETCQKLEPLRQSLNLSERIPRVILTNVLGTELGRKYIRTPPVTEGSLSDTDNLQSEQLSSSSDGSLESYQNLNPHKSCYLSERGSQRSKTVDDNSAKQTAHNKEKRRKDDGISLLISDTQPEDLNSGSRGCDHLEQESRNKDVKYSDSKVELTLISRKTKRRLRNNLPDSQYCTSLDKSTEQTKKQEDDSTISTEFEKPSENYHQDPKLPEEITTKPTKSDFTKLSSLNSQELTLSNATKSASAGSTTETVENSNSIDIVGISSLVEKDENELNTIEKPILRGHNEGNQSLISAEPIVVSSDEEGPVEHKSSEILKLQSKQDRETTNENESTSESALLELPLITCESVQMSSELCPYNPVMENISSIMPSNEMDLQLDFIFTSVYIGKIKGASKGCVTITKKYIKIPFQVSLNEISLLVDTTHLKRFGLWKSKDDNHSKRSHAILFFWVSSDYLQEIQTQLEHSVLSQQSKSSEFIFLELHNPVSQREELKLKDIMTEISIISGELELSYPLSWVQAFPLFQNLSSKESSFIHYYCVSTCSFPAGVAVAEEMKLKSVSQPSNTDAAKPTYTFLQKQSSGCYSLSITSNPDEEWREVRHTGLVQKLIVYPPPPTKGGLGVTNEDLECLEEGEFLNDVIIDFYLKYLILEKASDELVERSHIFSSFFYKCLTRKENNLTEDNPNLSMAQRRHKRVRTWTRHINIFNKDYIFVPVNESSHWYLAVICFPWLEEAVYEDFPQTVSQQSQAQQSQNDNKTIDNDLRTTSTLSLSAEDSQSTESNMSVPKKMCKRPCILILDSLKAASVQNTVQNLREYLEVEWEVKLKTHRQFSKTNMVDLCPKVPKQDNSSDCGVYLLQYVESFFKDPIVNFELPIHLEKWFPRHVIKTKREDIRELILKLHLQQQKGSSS

[7] = molecular target: T3, Caspase-3 (Homo sapiens, UniProt P42574); assay: caspase-3 inhibitors as off-family protease, SAR follow-up, selectivity assay for SENP protease inhibitor project, biochemical, luminescence, set 2 (AID 588599); assay type: functional
T3 sequence (P42574 whole entry): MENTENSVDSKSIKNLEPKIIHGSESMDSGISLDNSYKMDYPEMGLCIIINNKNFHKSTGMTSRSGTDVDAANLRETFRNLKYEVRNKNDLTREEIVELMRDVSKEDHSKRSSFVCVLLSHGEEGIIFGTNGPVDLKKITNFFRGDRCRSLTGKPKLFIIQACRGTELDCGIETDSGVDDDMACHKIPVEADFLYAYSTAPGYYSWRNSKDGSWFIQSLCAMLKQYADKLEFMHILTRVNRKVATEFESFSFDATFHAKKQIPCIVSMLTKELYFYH

[8] = molecular target: T4, Sentrin-specific protease 8 (Homo sapiens, UniProt Q96LD8); assay: SENP8 protease inhibitors, SAR follow-up, biochemical, luminescence, set 2 (AID 588601); assay type: functional
T4 sequence (Q96LD8 whole entry): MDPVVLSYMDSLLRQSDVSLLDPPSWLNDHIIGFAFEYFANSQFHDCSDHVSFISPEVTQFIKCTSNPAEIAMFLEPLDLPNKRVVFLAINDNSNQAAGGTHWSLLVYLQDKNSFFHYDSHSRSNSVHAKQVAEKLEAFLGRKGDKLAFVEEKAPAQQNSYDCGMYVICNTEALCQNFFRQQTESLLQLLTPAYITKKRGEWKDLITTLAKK

[9] = molecular target: T5, Sentrin-specific protease 6 (Homo sapiens, UniProt Q9GZR1); assay: SENP6 protease inhibitors, SAR follow-up, biochemical, luminescence, set 2 (AID 588598); assay type: functional
T5 sequence (Q9GZR1 whole entry): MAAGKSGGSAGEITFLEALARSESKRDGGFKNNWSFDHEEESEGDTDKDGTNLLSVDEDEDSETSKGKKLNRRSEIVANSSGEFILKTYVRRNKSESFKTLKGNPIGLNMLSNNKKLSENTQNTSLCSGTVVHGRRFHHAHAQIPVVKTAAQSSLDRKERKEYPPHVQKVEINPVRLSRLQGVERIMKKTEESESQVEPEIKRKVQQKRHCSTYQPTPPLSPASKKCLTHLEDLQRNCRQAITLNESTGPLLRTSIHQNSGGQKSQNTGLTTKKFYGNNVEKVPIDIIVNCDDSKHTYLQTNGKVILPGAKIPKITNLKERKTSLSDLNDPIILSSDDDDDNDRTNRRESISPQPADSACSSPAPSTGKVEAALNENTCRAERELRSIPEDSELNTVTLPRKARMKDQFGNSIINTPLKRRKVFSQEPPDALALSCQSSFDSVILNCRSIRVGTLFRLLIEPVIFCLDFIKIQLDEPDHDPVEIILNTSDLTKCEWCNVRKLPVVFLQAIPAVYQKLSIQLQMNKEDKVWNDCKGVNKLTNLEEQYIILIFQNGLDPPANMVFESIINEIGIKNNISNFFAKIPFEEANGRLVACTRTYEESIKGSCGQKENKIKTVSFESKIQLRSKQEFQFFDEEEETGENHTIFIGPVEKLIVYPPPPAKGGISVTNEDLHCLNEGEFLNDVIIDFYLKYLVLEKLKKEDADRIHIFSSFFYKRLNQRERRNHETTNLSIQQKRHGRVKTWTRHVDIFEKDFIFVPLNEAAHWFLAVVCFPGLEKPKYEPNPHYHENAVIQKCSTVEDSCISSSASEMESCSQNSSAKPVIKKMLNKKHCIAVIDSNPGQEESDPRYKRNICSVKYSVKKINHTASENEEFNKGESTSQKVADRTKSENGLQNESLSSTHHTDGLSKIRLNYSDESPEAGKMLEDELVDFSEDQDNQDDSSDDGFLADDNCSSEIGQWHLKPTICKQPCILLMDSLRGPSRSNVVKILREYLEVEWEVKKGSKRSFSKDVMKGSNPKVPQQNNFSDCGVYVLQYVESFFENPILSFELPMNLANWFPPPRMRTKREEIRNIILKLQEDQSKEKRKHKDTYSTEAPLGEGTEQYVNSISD

[10] = molecular target: T6, Phospholipase D1 (Homo sapiens, UniProt Q13393); assay: PLD1 inhibitor potency in cells, dose response (AID 602151); assay type: functional;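 also: cellular PLD1 assay in Calu-1 cells stimulated with PMA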
T6 sequence (Q13393 whole entry): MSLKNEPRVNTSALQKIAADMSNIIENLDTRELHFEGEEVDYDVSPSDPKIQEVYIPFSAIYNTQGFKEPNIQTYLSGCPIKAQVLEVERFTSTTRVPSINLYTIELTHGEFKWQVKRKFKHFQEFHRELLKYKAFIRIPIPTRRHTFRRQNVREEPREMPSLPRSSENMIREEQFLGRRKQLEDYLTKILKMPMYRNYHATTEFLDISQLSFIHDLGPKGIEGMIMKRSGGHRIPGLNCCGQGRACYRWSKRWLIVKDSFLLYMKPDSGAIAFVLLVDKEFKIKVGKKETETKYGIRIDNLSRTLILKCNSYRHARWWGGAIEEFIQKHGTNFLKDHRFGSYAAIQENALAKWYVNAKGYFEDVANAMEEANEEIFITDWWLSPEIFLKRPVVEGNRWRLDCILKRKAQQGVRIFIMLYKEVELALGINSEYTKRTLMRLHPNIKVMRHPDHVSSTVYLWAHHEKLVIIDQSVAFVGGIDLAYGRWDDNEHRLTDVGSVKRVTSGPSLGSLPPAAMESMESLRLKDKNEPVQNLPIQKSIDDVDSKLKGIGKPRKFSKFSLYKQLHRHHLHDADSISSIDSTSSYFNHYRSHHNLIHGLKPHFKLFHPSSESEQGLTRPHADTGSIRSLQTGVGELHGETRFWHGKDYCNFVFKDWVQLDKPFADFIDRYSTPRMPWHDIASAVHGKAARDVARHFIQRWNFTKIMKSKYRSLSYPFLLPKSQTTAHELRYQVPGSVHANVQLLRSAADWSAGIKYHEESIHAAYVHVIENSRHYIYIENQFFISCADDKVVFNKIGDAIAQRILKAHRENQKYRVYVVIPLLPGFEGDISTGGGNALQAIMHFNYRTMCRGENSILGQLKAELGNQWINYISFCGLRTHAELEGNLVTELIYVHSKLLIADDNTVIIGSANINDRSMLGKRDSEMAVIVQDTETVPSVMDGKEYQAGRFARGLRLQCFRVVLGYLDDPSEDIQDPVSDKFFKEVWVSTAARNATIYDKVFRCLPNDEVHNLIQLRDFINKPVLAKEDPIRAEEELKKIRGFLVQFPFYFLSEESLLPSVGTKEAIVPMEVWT

[11] = molecular target: Phospholipase D2 (Homo sapiens, UniProt O14939); assay: PLD2 inhibitor potency in cells, dose response (AID 602147); assay type: functional;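 also: cellular assay in HEK293 cells overexpressing GFP-tagged PLD2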
[12] = molecular target: T2, Sentrin-specific protease 7; assay: SENP7 protease inhibitors, SAR follow-up, biochemical, luminescence (AID 504497); assay type: functional
[13] = molecular target: T3, Caspase-3; assay: SAR Analysis of small molecule inhibitors of Sentrin-specific proteases (SENPs) using a Caspase-3 Selectivity assay. [Related pubchem assays (depositor defined):AID2540, AID2599, AID434973, AID489001]; assay type: functional
[14] = molecular target: T4, Sentrin-specific protease 8; assay: SENP8 protease inhibitors, SAR follow-up, biochemical, luminescence (AID 504501); assay type: functional
[15] = molecular target: T5, Sentrin-specific protease 6; assay: SAR Analysis of small molecule inhibitors of Sentrin-specific protease 6 (SENP6) using a Luminescent assay. [Related pubchem assays (depositor defined):AID2582, AID2599]; assay type: functional

Sequence of Phospholipase D2 (O14939 whole entry): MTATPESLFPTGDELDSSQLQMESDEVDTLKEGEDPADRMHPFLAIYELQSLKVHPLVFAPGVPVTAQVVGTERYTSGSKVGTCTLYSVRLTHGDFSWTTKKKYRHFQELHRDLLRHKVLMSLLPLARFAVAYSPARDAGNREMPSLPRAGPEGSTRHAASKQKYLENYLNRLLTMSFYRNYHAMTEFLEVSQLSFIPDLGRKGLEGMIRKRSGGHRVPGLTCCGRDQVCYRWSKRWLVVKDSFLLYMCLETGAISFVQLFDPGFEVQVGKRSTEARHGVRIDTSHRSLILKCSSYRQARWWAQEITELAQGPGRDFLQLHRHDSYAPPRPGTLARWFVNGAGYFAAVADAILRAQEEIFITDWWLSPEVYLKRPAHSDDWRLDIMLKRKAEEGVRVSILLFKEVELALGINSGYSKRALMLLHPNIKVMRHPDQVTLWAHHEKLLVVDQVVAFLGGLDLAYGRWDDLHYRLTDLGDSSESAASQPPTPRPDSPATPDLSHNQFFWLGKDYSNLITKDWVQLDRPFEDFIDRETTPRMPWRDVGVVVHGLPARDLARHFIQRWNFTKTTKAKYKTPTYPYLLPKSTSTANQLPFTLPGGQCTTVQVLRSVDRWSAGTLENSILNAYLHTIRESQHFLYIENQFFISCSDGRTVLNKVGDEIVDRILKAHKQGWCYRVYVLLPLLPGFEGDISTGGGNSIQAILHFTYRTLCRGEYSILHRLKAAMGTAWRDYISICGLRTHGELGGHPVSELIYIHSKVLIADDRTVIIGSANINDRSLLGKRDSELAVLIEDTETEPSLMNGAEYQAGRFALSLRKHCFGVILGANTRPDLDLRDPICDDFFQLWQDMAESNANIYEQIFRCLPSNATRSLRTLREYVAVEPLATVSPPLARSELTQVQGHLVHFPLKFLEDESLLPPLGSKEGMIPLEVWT
Sequence of Melanin-concentrating hormone receptor 1 (Q99705 whole entry): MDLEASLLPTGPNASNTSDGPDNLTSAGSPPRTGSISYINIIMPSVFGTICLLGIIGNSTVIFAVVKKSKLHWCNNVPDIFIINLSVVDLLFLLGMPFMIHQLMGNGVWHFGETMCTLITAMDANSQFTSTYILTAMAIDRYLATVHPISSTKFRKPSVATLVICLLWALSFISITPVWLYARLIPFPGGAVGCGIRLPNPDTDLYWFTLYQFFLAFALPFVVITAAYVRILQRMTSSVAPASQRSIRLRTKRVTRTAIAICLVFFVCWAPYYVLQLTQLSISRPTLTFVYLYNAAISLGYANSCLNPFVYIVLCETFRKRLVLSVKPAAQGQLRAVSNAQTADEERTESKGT

IC50 [1]: 0.781 µM (active)
Compound: COc1ccc(Oc2c(Cl)cnn(CC(=O)N3c4ccccc4CC3C)c2=O)cc1 (stereo unspecified)

IC50 [6]: > 99 µM (inactive)
IC50 [7]: > 99 µM (inactive)
IC50 [9]: > 99 µM (inactive)
Compound: COc1cc(/C=C(/C#N)c2nc(-c3ccc(C)cc3)no2)ccc1OCc1cccc(C(F)(F)F)c1
IC50 [8]: > 99 µM (inactive)

IC50 [12]: 14 µM (active)
IC50 [6]: 11.1 µM (active)
IC50 [7]: 33.8 µM (active)
IC50 [13]: 37 µM (active)
IC50 [15]: 32 µM (active)
IC50 [9]: 11.7 µM (active)
Compound: Fc1ccc(-c2nc(/C=C/c3ccccc3)no2)cc1
IC50 [8]: 11.7 µM (active)
IC50 [14]: 33 µM (active)

IC50 [12]: > 99 µM (inactive)
IC50 [13]: > 99 µM (inactive)
IC50 [15]: > 99 µM (inactive)
Compound: CCOc1ccc2nc(N(Cc3cccnc3)C(=O)c3ccc(Cl)s3)sc2c1
IC50 [14]: > 99 µM (inactive)

Continued, molecule first:

Compound: CCN(CC)S(=O)(=O)c1cnccc1N1CCN(c2cccc(Cl)c2)CC1
EC50 [2]: > 60 µM (not active)
EC50 [3]: 24.7 µM (active)
EC50 [4]: 0.268 µM (active)
EC50 [5]: < 0.1 µM (active)

Compound: CCCCc1n(C)c2ccccc2[n+]1CC(=O)c1ccc(Cl)cc1
EC50 [3]: 9.58 µM (active)

Compound: C[C@@H](CN1CCC(n2c(=O)[nH]c3ccccc32)CC1)NC(=O)C1C[C@H]1c1ccccc1 (stereo partly specified)
IC50 [10]: 0.088 µM (active)
IC50 [11]: 14.5 µM (active)

Compound: C[C@@H](CN1CCC(n2c(=O)[nH]c3ccccc32)CC1)NC(=O)c1cc2ccccc2[nH]1
IC50 [10]: 0.001 µM (active)
IC50 [11]: 0.066 µM (active)

From ChEMBL document CHEMBL1201862, “PubChem BioAssay data set” (2004)
